Laboratory results: publication PMC9354954, “Assessing Bioavailability and Bioactivity of 4-Hydroxythiazolidine-2-Thiones, Newly Discovered Glucosinolate Degradation Products Formed During Domestic Boiling of Cabbage” (Frontiers in Nutrition, 2022)
pIC50: −log10 of the molar value.

Legend:
[1] = Antioxidant potential, ABTS assay; details: compared to compound free blank
Protocol: (§1) To evaluate the potential of allyl HTT and 4-MSOB HTT to act as antioxidants, ABTS and DPPH were used as model radicals and Trolox as reference antioxidants based on Shalaby and Shanab ([28]). In total, 1.5 mg of ABTS and 0.26 mg potassium peroxodisulfate were dissolved in 4 mL of pure water and incubated in the dark overnight at room temperature. Afterward, 36 mL of MeOH were added to obtain the fresh ABTS working solution. In the case of the DPPH assay, 1.1 mg of DPPH were dissolved in 4 mL of MeOH and incubated for 2 h in the dark at 4°C, followed by the addition of 36 mL of MeOH to obtain the fresh DPPH working solution. Standards of Trolox, allyl HTT, and 4-MSOB HTT were prepared in water/MeOH (90/10, v/v%) at concentrations in the range of 6.25–100 μM. To detect the antioxidant potential, 100 μL of standard or water/MeOH (90/10, v/v%) as control were added to 1,000 μL of ABTS or DPPH working solution, and the extinction was measured directly after mixing and after 6 min of incubation in the dark with a spectrometer (UviLine 9100, Schott Instruments, Mainz, Germany) at 734 nm in the case of ABTS assay and 515 nm in DPPH assay (each prepared as duplicate). The results are reported as mean ± SD of the reduction of the extinction compared to the control.

[2] = Antioxidant potential, DPPH assay; details: compared to compound free blank
Protocol: as §1

GSK-3α = test system: GSK-3α; design: method as in PMID 31553649; details: read-out: IC50 (50% inhibition) to inhibit isoform GSK-3α; cited from earlier work
GSK-3β = test system: GSK-3β; design: method as in PMID 31553649; details: read-out: IC50 (50% inhibition) to inhibit GSK-3β; cited from earlier work
[3] = design: method as in doi:10.1002/14356007.a09_001; details: cited from earlier work
HepG2 = test system: HepG2; design: method as in PMID 14578469; details: HepG2, 72 h of incubation time; read-out: IC50 (50% inhibition of cell growth); cited from earlier work
[4] = design: method as in PMID 8000299, PMID 9865427; details: 10–12 h urine after consumption of horseradish or a mustard paste; cited from earlier work
[5] = test system: NAD(P)H dehydrogenase quinone 1 (NQO1); assay: NQO1 activity in HepG2 cells; assay type: cell-based, human; details: 2 μM, 24 h, negative control 145 ± 8
Protocol: (§2) The effect of allyl HTT or 4-MSOB HTT on NAD(P)H dehydrogenase quinone 1 (NQO1) activity was tested for HepG2 cells and HCT116 pTRAF cells. HCT116 pTRAF is a cell line that was transfected with the pTRAF^Nrf2/HIF/NFκB [Johansson et al. ([29])], as described by Kipp et al. ([30]). HCT116 pTRAF cells were cultivated in McCoy's 5A medium + 1% penicillin/streptomycin + 10% FBS + 1% GlutaMAX + 0.2 mg/mL hygromycin B. HepG2 cells in RPMI medium were seeded in a 6-well-plate (sterile, Sarsted, Nümbrecht, Germany) with a density of 350,000 cells/well, and HCT116 pTRAF cells in culture medium without hygromycin B with a density of 100,000 cells/well. After 48 h of incubation under cell culture conditions, the medium was exchanged with the fresh medium as a negative control and a medium with concentrations of 1 μM and 100 μM of allyl HTT or 4-MSOB HTT. Medium containing 2 μM auranofin was used as a positive control. After 24 h of incubation under cell culture conditions, NQO1 activity was analyzed according to Müller et al. ([31]), and the results were reported as mean ± SD. Additionally, the t-test for independent samples per variable was performed to test if concentration-dependent differences exist.

[6] = test system: NAD(P)H dehydrogenase quinone 1 (NQO1); assay: NQO1 activity in HCT116 pTRAF cells; assay type: cell-based; details: 2 μM, 24 h, negative control 51 ± 5
Protocol: as §2

[7] = cited from earlier work
endothelial cells = details: cited from earlier work
[8] = test system: cultured hepatocytes from human liver transplants; details: range of 10 μM and 50 μM; cited from earlier work
[9] = test system: Nrf2 target gene expression in alveolar macrophages and bronchial epithelial cells; details: intervention with 150 μM; cited from earlier work

## Cc1c(C)c2c(c(C)c1O)CCC(C)(C(=O)O)O2 (racemic) [Trolox, (±)-6-hydroxy-2,5,7,8-tetramethylchromane-2-carboxylic acid, reference compound]
[1]; 6.25 µM
  Relative signal reduction of the extinction value of the radical ABTS: 1.3 ± 0.4%
[1]; 12.5 µM
  Relative signal reduction of the extinction value of the radical ABTS: 1.9 ± 0.4%
[1]; 25 µM
  Relative signal reduction of the extinction value of the radical ABTS: 9.3 ± 0.5%
[1]; 50 µM
  Relative signal reduction of the extinction value of the radical ABTS: 16.5 ± 0.4%
[1]; 100 µM
  Relative signal reduction of the extinction value of the radical ABTS: 31.2 ± 0.4%
[2]; 6.25 µM
  Relative signal reduction of the extinction value of the radical DPPH: 0.8 ± 0.3%
[2]; 12.5 µM
  Relative signal reduction of the extinction value of the radical DPPH: 2.8 ± 0.3%
[2]; 25 µM
  Relative signal reduction of the extinction value of the radical DPPH: 3.5 ± 0.4%
[2]; 50 µM
  Relative signal reduction of the extinction value of the radical DPPH: 8.8 ± 0.6%
[2]; 100 µM
  Relative signal reduction of the extinction value of the radical DPPH: 17.5 ± 1.5%

## OC1(c2ccccc2)CSC(=S)N1Cc1ccncc1 (stereo not shown) [COB-187]
GSK-3α
  pIC50: 7.66
GSK-3β
  pIC50: 7.96

## CN1CCSC1=S [N-methyl-2-thiazolidinethione]
[3]
  toxicity: low toxicity

## C=CCN=C=S [allyl ITC, allyl isothiocyanate]
HepG2
  pIC50: 4.44
[4]
  recovery of formed allyl ITC metabolites in urine: 42–54%

## CC(=O)OC[C@H]1O[C@@H]([S-])[C@H](OC(C)=O)[C@@H](OC(C)=O)[C@@H]1OC(C)=O.CCP(CC)CC.[Au+] [auranofin, 1-thio-β-D-glucopyranosatotriethyl phosphine gold-2,3,4,6-tetraacetate]
[5]
  NQO1 activity: 153 ± 4 mU/mg protein
[6]
  NQO1 activity: 114 ± 7 mU/mg protein

## C[S+]([O-])CCCCN=C=S (stereo not shown) [sulforaphane]
HepG2
  pIC50: 4.89
[7]
  bioavailability: approximately 40%
Endothelial cells
  concentrations inducing apoptosis and cytotoxicity: 20 to 40 µM
[8]
  cytotoxicity: no significant cytotoxicity
[9]
  stimulation in Nrf2 target gene expression: no stimulation
